Experimental data: article PMC5074076, “Novel minimal physiologically-based model for the prediction of passive tubular reabsorption and renal excretion clearance” (European Journal of Pharmaceutical Sciences, 2016)

Key:
[1] = Observed clearance ratio and fraction reabsorbed (Freab, Freab′) calculated from CLR, fu,p and GFR; details: for Apparent Freab / Apparent Freab’: calculated from observed CLR, fu,p and GFR; for Freab: observed/apparent, 1 - CLR/(GFR x fu,p), GFR 120 mL/min
Description: The clearance ratio was calculated from clinical data using Eqs. […] For the remaining drugs the fraction reabsorbed (Freab) was calculated using Eq.
GFR values for healthy subjects may vary as a result of biological as well as inter-individual variation and also the method of measurement. […] Individual GFR values for subjects in clinical trials databases were generally not available.
In the proposed model, the nephron is represented as five compartments, namely the glomerulus and four tubular regions, as depicted in Fig. 1. The tubular compartments in the model, listed in anatomical order starting from the glomerulus are: the proximal tubule (PT), the loop of Henle (LoH), the distal tubule (DT) and the collecting duct (CD). […] The relationship between Freab′ and Freab is shown in Eq. (11). The predicted overall Freab′ was calculated from the predicted Freab′ in each (i) tubular region (Freab,i′), as shown in Eq. (12).

[2] = Caco-2 apparent permeability (Papp), apical to basolateral, pH 6.5-7.4 gradient, efflux inhibitor cocktail; details: human, Caco-2, pH 6.5
Description: The assay was performed using the apical to basolateral pH gradient format of pH 6.5 to pH 7.4. […] The efflux transporter inhibitor cocktail was used to minimise the effect of efflux transporters expressed in Caco-2 cells (e.g. P-glycoprotein, BCRP and MRP2) on the estimate of apical to basolateral Papp of substrates for such transporters.

[3] = LogD7.4 octanol-buffer, shake-flask (or ACD / BioByte); details: pH 7.4
Description: (§1) The pKa values associated with ionisable centres identified within a given drug were used to calculate the fraction of drug ionised at pH 6.5. Drugs were then classified into groups as follows: drugs with > 50% unionised at pH 6.5 were classified as “Neutral”; drugs with > 50% ionised as mono −/di −/tri-protic acids or bases were classified as “Acid” or “Base”, respectively; “Zwitterions” were classified as drugs with > 50% ionised, with the major ionised species having no net charge; all other drugs were classified as amphoteric. […] LogD6.5 for neutral, amphoteric and zwitterion drugs were assumed to be equal to LogD7.4.

[4] = LogD6.5 estimated from LogD7.4 and pKa; details: for logD: octanol/buffer
Description: as §1

[5] = cited from earlier work; for CLR: healthy adult subjects, overall weighted mean of literature values, absolute (not normalised), ref Supplementary Results Table S2.1; for Overall weighted mean CLR: healthy subjects, plasma and urine data from same subjects, normalised for subject weight and body surface area where necessary; for Overall weighted mean CLR / CLR Observed: ref Table S2.1; for CLR Observed: overall weighted mean of values obtained from a literature survey
[6] = Ionisation classification at pH 6.5 from pKa; type: physicochemical; details: predominant species (> 50%) at pH 6.5 from measured or calculated pKa
Description: as §1

[7] = pKa, potentiometric AstraZeneca in-house assay (or ACD / BioByte); details: pKa (base), measured, potentiometric
Description: as §1

Row | Structure (SMILES) | Apparent Freab [1] | Apparent Freab’ [1] | Freab [1] | Papp A→B at 2 h [2] [×10⁻⁶ cm/s] | logD ([3]; octanol/buffer) | logD ([4]; pH 6.5) | CLR [5] [mL/min] | Overall weighted mean CLR [5] [mL/min] | CLR Observed [5] [mL/min] | Ionisation at pH 6.5 [6] | LogD7.4 [3] | LogD6.5 ([4]; pH 6.5) | pKa [7] | LogD6.5 ([4]; calculated from pKa and LogD7.4) | logD [3]
1 | Cc1c(F)c(N2CCNC(C)C2)cc2c1c(=O)c(C(=O)O)cn2C1CC1 (stereo not shown) [Grepafloxacin] | 0.350 | 0.353 | 0.35 | 110 | 0.5 | 0.5 | 47.6 | 47.6 | 47.60 | Zwitterion |  |  |  |  | 
2 | C[C@H]1C[C@H]2[C@@H]3CCC4=CC(=O)C=C[C@]4(C)[C@@]3(F)[C@@H](O)C[C@]2(C)[C@@]1(O)C(=O)CO [Betamethasone] | 0.780 | 0.787 | 0.78 |  | 1.99 | 1.99 | 9.50 | 9.5 | 9.50 | Neutral |  |  |  |  | 
3 | Cn1c(=O)c2[nH]cnc2n(C)c1=O [Theophylline] |  |  |  |  |  |  | 5.50 | 5.5 | 5.50 | Neutral | − 0.09 | − 0.06 |  |  | 
4 | CN(C)CCCN1c2ccccc2CCc2ccccc21 [Imipramine] |  |  |  |  |  |  |  |  |  |  |  |  | 9.17 |  | 
5 | O=C(NCCN1CCOCC1)c1ccc(Cl)cc1 [Moclobemide] | 0.943 | 0.951 | 0.94 | 64.4 | 1.6 | 1.34 | 3.42 | 3.4 | 3.42 | Base |  |  |  |  | 
6 | C[C@]12C=CC(=O)C=C1CC[C@@H]1[C@@H]2C(=O)C[C@@]2(C)[C@H]1CC[C@]2(O)C(=O)CO [Prednisone] | 0.299 | 0.301 | 0.30 | 37.3 | 1.25 | 1.25 | 37.9 | 37.9 | 37.87 | Neutral |  |  |  |  | 
7 | CC1(C)O[C@@H]2[C@@H](CO[C@@]3(COS(N)(=O)=O)OC(C)(C)O[C@@H]23)O1 [Topiramate] | 0.856 | 0.863 | 0.86 | 46.2 | 0.6 | 0.61 | 15.1 | 15.1 | 15.05 | Neutral |  |  |  |  | 
8 | Nc1ccc(S(=O)(=O)c2ccc(N)cc2)cc1 [Dapsone] |  |  |  | 49.7 | 0.85 | 0.85 | 5.50 | 5.5 | 5.50 | Neutral |  |  |  |  | 
9 | Cc1ncc([N+](=O)[O-])n1CCO [Metronidazole] | 0.918 | 0.925 | 0.92 | 64.7 |  |  | 9.64 | 9.6 | 9.64 | Neutral |  |  |  |  | 
10 | CN(C)CCCC1(c2ccc(F)cc2)OCc2cc(C#N)ccc21 (stereo not shown) [Citalopram] | -0.086 | -0.087 |  |  |  |  | 65.2 | 65.2 | 65.17 | Base |  |  |  |  | 
11 | CC[C@@H](C(N)=O)N1CCCC1=O [Levetiracetam] | 0.636 | 0.641 | 0.64 | 15.7 |  |  | 39.4 | 39.4 | 39.35 | Neutral |  |  |  |  | 
12 | C[C@]12C=CC(=O)C=C1CC[C@@H]1[C@@H]2[C@@H](O)C[C@@]2(C)[C@H]1CC[C@]2(O)C(=O)CO [Prednisolone] | 0.099 | 0.100 | 0.10 |  |  |  | 34.3 | 34.3 | 34.30 | Neutral |  |  |  | […] | 
13 | CCCN1CCCC[C@H]1C(=O)Nc1c(C)cccc1C [Ropivacaine] | 0.547 | 0.552 | 0.55 | 32.3 |  | 1.27 | 2.73 | 2.7 | 2.73 | Base |  |  |  |  | 2.1
14 | CCN(CC)CCCN(c1ccccc1)C1Cc2ccccc2C1 [Aprindine] | 0.785 | 0.791 | 0.78 | 31.8 | 2.5 | 1.53 | 1.28 | 1.3 | 1.28 | Base |  |  |  |  | 
15 | COc1ccc(C(CN(C)C)C2(O)CCCCC2)cc1 (stereo not shown) [Venlafaxine] | 0.088 | 0.089 | 0.09 | 27.6 |  | 0.05 | 80.0 | 80.0 | 80.00 | Base |  |  |  |  | 0.95
16 | OC(Cn1cncn1)(Cn1cncn1)c1ccc(F)cc1F [Fluconazole] | 0.848 | 0.855 | 0.85 | 36.3 |  |  | 15.7 | 15.7 | 15.68 |  |  |  |  |  | 
17 | CN(C)[C@@H]1C(O)=C(C(N)=O)C(=O)[C@@]2(O)C(O)=C3C(=O)c4c(O)cccc4[C@@](C)(O)[C@H]3C[C@@H]12 [Tetracycline] | 0.053 | 0.053 | 0.05 | 1.1 |  |  | 86.4 | 86.4 | 86.38 |  |  |  |  |  | 
18 | CN(C)CCC(c1ccc(Cl)cc1)c1ccccn1 (stereo not shown) [Chlorpheniramine] |  |  |  | 28.5 |  |  |  |  |  |  |  |  |  |  | 
19 | CN(C)CCC=C1c2ccccc2COc2ccccc21 [Doxepin] | 0.638 | 0.643 | 0.64 | 36.5 | 2.23 | 1.41 | 9.75 | 9.8 | 9.75 | Base |  |  |  |  | 
